Data as given in patent US20240116892A1, “HETEROCYCLIC AMIDE AND UREA COMPOUNDS AS JAK2 INHIBITORS” (Ajax Therapeutics, Inc., priority 2022, published 2024).

These compounds were tested against JAK2 (JH1 domain-catalytic, Y1007F, Y1008F) kinase (Homo sapiens (Human), UniProt O60674, Y1007F/Y1008F) (assay: JAK2 JH1 Domain Binding Assay). Conditions: qPCR readout.
Outline: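 Competitive binding format: test compound, DNA-tagged JAK2 JH1 (Y1007F/Y1008F; HEK293-expressed NFkB fusion) and ligand-coated magnetic beads incubated 1 h at room temperature. Kinase retained on beads released with 0.5 μmol/L non-biotinylated ligand, then measured by qPCR.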

JAK2 (JH1 domain-catalytic, Y1007F, Y1008F) kinase, sequence (O60674 849-1124 Y1007F/Y1008F): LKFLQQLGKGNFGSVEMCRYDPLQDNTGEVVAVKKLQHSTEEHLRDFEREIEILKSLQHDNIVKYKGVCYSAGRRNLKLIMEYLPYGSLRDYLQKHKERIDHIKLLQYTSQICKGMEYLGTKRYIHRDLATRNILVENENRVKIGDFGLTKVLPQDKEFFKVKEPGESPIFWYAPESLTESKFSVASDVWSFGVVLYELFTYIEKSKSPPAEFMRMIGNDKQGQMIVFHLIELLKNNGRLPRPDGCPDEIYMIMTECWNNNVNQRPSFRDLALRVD

Kd [nM]	SMILES
10 to 50	CN(C(=O)Nc1cc(C(F)(F)F)cn(C)c1=O)[C@@H]1CCN(c2cnc3[nH]n(C)c(=O)c3c2)C[C@@H]1F [Example I-89-a, 1-((3S,4R)-3-fluoro-1-(2-methyl-3-oxo-2,3-dihydro-1H-pyrazolo[3,4-b]pyridin-5-yl)piperidin-4-yl)-1-methyl-3-(1-methyl-2-oxo-5-(trifluoromethyl)-1,2-dihydropyridin-3-yl)urea]
10 to 50	CN(C(=O)Nc1cc(C(F)(F)F)cn(C)c1=O)[C@H]1CCN(c2cnc3[nH]n(C)c(=O)c3c2)C[C@H]1F [Example I-89-b, 1-((3R,4S)-3-fluoro-1-(2-methyl-3-oxo-2,3-dihydro-1H-pyrazolo[3,4-b]pyridin-5-yl)piperidin-4-yl)-1-methyl-3-(1-methyl-2-oxo-5-(trifluoromethyl)-1,2-dihydropyridin-3-yl)urea]
10 to 50	CN(C(=O)Nc1cc(C(F)(F)F)cn(C)c1=O)[C@@H]1CCN(c2cnc3[nH]n(C)c(=O)c3c2)C[C@H]1F [Example I-90-b, 1-((3R,4R)-3-fluoro-1-(2-methyl-3-oxo-2,3-dihydro-1H-pyrazolo[3,4-b]pyridin-5-yl)piperidin-4-yl)-1-methyl-3-(1-methyl-2-oxo-5-(trifluoromethyl)-1,2-dihydropyridin-3-yl)urea]
50 to 1000	CN(C(=O)Nc1cc(C(F)(F)F)cn(C)c1=O)C1CCN(c2cnc3cncn3c2)CC1 [Example I-91, 1-(1-(imidazo[1,5-a]pyrimidin-3-yl)piperidin-4-yl)-1-methyl-3-(1-methyl-2-oxo-5-(trifluoromethyl)-1,2-dihydropyridin-3-yl)urea]
10 to 50	CNc1cn2ncc(N3CCC(N(C)C(=O)Nc4cc(C(F)(F)F)cn(C)c4=O)CC3)c2cn1 [Example I-92, 1-methyl-3-(1-methyl-2-oxo-5-(trifluoromethyl)-1,2-dihydropyridin-3-yl)-1-(1-(6-(methylamino)pyrazolo[1,5-a]pyrazin-3-yl)piperidin-4-yl)urea]
10 to 50	Cn1cc(C(F)(F)F)cc(NC(=O)N2CC=CC23CCN(c2cnc4[nH]cc(F)c4n2)CC3)c1=O [Example I-93, 8-(7-fluoro-5H-pyrrolo[2,3-b]pyrazin-2-yl)-N-(1-methyl-2-oxo-5-(trifluoromethyl)-1,2-dihydropyridin-3-yl)-1,8-diazaspiro[4.5]dec-3-ene-1-carboxamide]
< 10	COc1c[nH]c2ncc(N3CCC(N(C)C(=O)Nc4cc(C(F)(F)F)cn(C)c4=O)CC3)cc12 [Example I-94, 1-(1-(3-methoxy-1H-pyrrolo[2,3-b]pyridin-5-yl)piperidin-4-yl)-1-methyl-3-(1-methyl-2-oxo-5-(trifluoromethyl)-1,2-dihydropyridin-3-yl)urea]
< 10	CN(C(=O)Nc1cc(C(F)(F)F)cn(C)c1=O)[C@H]1CCN(c2cnc3cn[nH]c3c2)C[C@H]1F [Example I-95-a, 1-((3R,4S)-3-fluoro-1-(1H-pyrazolo[4,3-b]pyridin-6-yl)piperidin-4-yl)-1-methyl-3-(1-methyl-2-oxo-5-(trifluoromethyl)-1,2-dihydropyridin-3-yl)urea]
< 10	CN(C(=O)Nc1cc(C(F)(F)F)cn(C)c1=O)[C@@H]1CCN(c2cnc3cn[nH]c3c2)C[C@@H]1F [Example I-95-b, 1-((3S,4R)-3-fluoro-1-(1H-pyrazolo[4,3-b]pyridin-6-yl)piperidin-4-yl)-1-methyl-3-(1-methyl-2-oxo-5-(trifluoromethyl)-1,2-dihydropyridin-3-yl)urea]
10 to 50	CN(C(=O)Nc1cc(C(F)(F)F)cn(C)c1=O)[C@@H]1CCN(c2cnc3[nH]n(C)c(=O)c3c2)CC1(F)F [Example I-96-a, (R)-1-(3,3-difluoro-1-(2-methyl-3-oxo-2,3-dihydro-1H-pyrazolo[3,4-b]pyridin-5-yl)piperidin-4-yl)-1-methyl-3-(1-methyl-2-oxo-5-(trifluoromethyl)-1,2-dihydropyridin-3-yl)urea]
< 10	CN(C(=O)Nc1cc(C(F)(F)F)cn(C)c1=O)[C@H]1CCN(c2cnc3[nH]n(C)c(=O)c3c2)CC1(F)F [Example I-96-b, (S)-1-(3,3-difluoro-1-(2-methyl-3-oxo-2,3-dihydro-1H-pyrazolo[3,4-b]pyridin-5-yl)piperidin-4-yl)-1-methyl-3-(1-methyl-2-oxo-5-(trifluoromethyl)-1,2-dihydropyridin-3-yl)urea]
< 10	CNc1n[nH]c2ncc(N3CC[C@@H](N(C)C(=O)Nc4cc(C(F)(F)F)cn(C)c4=O)[C@@H](F)C3)cc12 [Example I-97-a, 1-((3S,4R)-3-fluoro-1-(3-(methylamino)-1H-pyrazolo[3,4-b]pyridin-5-yl)piperidin-4-yl)-1-methyl-3-(1-methyl-2-oxo-5-(trifluoromethyl)-1,2-dihydropyridin-3-yl)urea]
< 10	CNc1n[nH]c2ncc(N3CC[C@H](N(C)C(=O)Nc4cc(C(F)(F)F)cn(C)c4=O)[C@H](F)C3)cc12 [Example I-97-b, 1-((3R,4S)-3-fluoro-1-(3-(methylamino)-1H-pyrazolo[3,4-b]pyridin-5-yl)piperidin-4-yl)-1-methyl-3-(1-methyl-2-oxo-5-(trifluoromethyl)-1,2-dihydropyridin-3-yl)urea]
10 to 50	Cn1cc(C(F)(F)F)cc(NC(=O)N2CC=CC23CCN(c2cnc4[nH]cc(C#N)c4n2)CC3)c1=O [Example I-98, 8-(7-cyano-5H-pyrrolo[2,3-b]pyrazin-2-yl)-N-(1-methyl-2-oxo-5-(trifluoromethyl)-1,2-dihydropyridin-3-yl)-1,8-diazaspiro[4.5]dec-3-ene-1l-carboxamide]
< 10	CNc1n[nH]c2ncc(N3CCC(N(C)C(=O)Nc4cc(C(F)(F)F)cn(C)c4=O)CC3)cc12 [Example I-99, 1-methyl-3-(1-methyl-2-oxo-5-(trifluoromethyl)-1,2-dihydropyridin-3-yl)-1-(1-(3-(methylamino)-1H-pyrazolo[3,4-b]pyridin-5-yl)piperidin-4-yl)urea]
< 10	CN(C(=O)Nc1cc(C(F)(F)F)cn(C)c1=O)[C@H]1CCN(c2cnc3[nH]c(=O)[nH]c3c2)C[C@H]1F [Example I-100-a, 1-((3R,4S)-3-fluoro-1-(2-oxo-2,3-dihydro-1H-imidazo[4,5-b]pyridin-6-yl)piperidin-4-yl)-1-methyl-3-(1-methyl-2-oxo-5-(trifluoromethyl)-1,2-dihydropyridin-3-yl)urea]
< 10	CN(C(=O)Nc1cc(C(F)(F)F)cn(C)c1=O)[C@@H]1CCN(c2cnc3[nH]c(=O)[nH]c3c2)C[C@@H]1F [Example I-100-b, 1-((3S,4R)-3-fluoro-1-(2-oxo-2,3-dihydro-1H-imidazo[4,5-b]pyridin-6-yl)piperidin-4-yl)-1-methyl-3-(1-methyl-2-oxo-5-(trifluoromethyl)-1,2-dihydropyridin-3-yl)urea]
1000 to 5000	CN(C(=O)Nc1cc(C(F)(F)F)cn(C)c1=O)[C@@H]1CCN(c2cnc3[nH]nc(OC4COC4)c3c2)C[C@@H]1F [Example I-101-a, 1-((3S,4R)-3-fluoro-1-(3-(oxetan-3-yloxy)-1H-pyrazolo[3,4-b]pyridin-5-yl)piperidin-4-yl)-1-methyl-3-(1-methyl-2-oxo-5-(trifluoromethyl)-1,2-dihydropyridin-3-yl)urea]
1000 to 5000	CN(C(=O)Nc1cc(C(F)(F)F)cn(C)c1=O)[C@H]1CCN(c2cnc3[nH]nc(OC4COC4)c3c2)C[C@H]1F [Example I-101-b, 1-((3R,4S)-3-fluoro-1-(3-(oxetan-3-yloxy)-1H-pyrazolo[3,4-b]pyridin-5-yl)piperidin-4-yl)-1-methyl-3-(1-methyl-2-oxo-5-(trifluoromethyl)-1,2-dihydropyridin-3-yl)urea]
< 10	CN(C(=O)Nc1cc(C(F)(F)F)cn(C)c1=O)[C@@H]1CCN(c2cnc3[nH]nc(OC[C@H]4COCCO4)c3c2)C[C@@H]1F [Example I-102-a, 1-((3S,4R)-1-(3-(((R)-1,4-dioxan-2-yl)methoxy)-1H-pyrazolo[3,4-b]pyridin-5-yl)-3-fluoropiperidin-4-yl)-1-methyl-3-(1-methyl-2-oxo-5-(trifluoromethyl)-1,2-dihydropyridin-3-yl)urea]
< 10	CN(C(=O)Nc1cc(C(F)(F)F)cn(C)c1=O)[C@H]1CCN(c2cnc3[nH]nc(OC[C@H]4COCCO4)c3c2)C[C@H]1F [Example I-102-b, 1-((3R,4S)-1-(3-(((R)-1,4-dioxan-2-yl)methoxy)-1H-pyrazolo[3,4-b]pyridin-5-yl)-3-fluoropiperidin-4-yl)-1-methyl-3-(1-methyl-2-oxo-5-(trifluoromethyl)-1,2-dihydropyridin-3-yl)urea]
< 10	CN(C(=O)Nc1cc(C(F)(F)F)cn(C)c1=O)[C@H]1CCN(c2cnc3[nH]c(=O)n(C)c3c2)C[C@H]1F [Example I-103-a, 1-((3R,4S)-3-fluoro-1-(1-methyl-2-oxo-2,3-dihydro-1H-imidazo[4,5-b]pyridin-6-yl)piperidin-4-yl)-1-methyl-3-(1-methyl-2-oxo-5-(trifluoromethyl)-1,2-dihydropyridin-3-yl)urea]
< 10	CN(C(=O)Nc1cc(C(F)(F)F)cn(C)c1=O)[C@@H]1CCN(c2cnc3[nH]c(=O)n(C)c3c2)C[C@@H]1F [Example I-103-b, 1-((3S,4R)-3-fluoro-1-(1-methyl-2-oxo-2,3-dihydro-1H-imidazo[4,5-b]pyridin-6-yl)piperidin-4-yl)-1-methyl-3-(1-methyl-2-oxo-5-(trifluoromethyl)-1,2-dihydropyridin-3-yl)urea]
< 10	COCCOc1n[nH]c2ncc(N3CC[C@@H](N(C)C(=O)Nc4cc(C(F)(F)F)cn(C)c4=O)[C@@H](F)C3)cc12 [Example I-104-a, 1-((3S,4R)-3-fluoro-1-(3-(2-methoxyethoxy)-1H-pyrazolo[3,4-b]pyridin-5-yl)piperidin-4-yl)-1-methyl-3-(1-methyl-2-oxo-5-(trifluoromethyl)-1,2-dihydropyridin-3-yl)urea]
